# Experimental data published in BindingDB's records for patent US20230357253 (The Scripps Research Institute, 2023).
# Target: Stimulator of interferon genes protein (Homo sapiens, UniProt Q86WV6)
# Assay: WT STING Binding Assay
# Experimental: Upon proximity of the two dyes, the excitation of the donor by the flash lamp on the PHERAstar FSX plate reader triggers a Fluorescence Resonance Energy Transfer (FRET) towards the acceptor, which in turn fluoresces at 665 nm. To assess the ability of the synthetic small molecule STING ligands to bind to human STING, a competitive assay format was applied. A 10-point titration of each of the synthetic ligands in 5 uL were transferred into a 384 well plate, followed by 20 uL of assay buffer containing the 6×His-tagged human STING protein and labeled 2′3′cGAMP ligand and incubated for three hours at room temperature. The raw values obtained from the PHERAstar were used to calculate the reported IC50 values (the signal is inversely proportional to the binding of the synthetic ligand) through curve fitting in Genedata. The percent inhibition was calculated based upon the maximal amount of binding by synthetic compound versus the maximum binding of unlabeled 2′3′ cGAMP which was used as a control in each assay.
# Sequence of Stimulator of interferon genes protein (Q86WV6 whole entry): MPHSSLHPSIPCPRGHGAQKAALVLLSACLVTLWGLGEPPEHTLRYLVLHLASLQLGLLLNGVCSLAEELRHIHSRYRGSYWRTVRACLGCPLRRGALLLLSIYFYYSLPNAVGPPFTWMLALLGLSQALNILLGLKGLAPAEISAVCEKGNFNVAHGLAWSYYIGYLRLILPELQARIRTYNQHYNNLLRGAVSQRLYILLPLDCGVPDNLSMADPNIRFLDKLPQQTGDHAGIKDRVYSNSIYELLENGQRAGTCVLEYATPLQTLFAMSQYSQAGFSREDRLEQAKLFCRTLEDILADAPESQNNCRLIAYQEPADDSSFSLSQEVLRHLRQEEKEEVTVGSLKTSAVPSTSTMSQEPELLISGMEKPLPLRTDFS
row,IC50 [nM],Structure (SMILES)
1,< 10,"COc1cc(C(=O)O)c(NC(=O)c2ccc(-n3ccnc3)nn2)cc1OCCc1cc(C(=O)O)c(NC(=O)c2ccc3nnnn3n2)cc1Cl [US20230357253, Compound 6]"
2,> 1000,"O=C(Nc1cc(CCCc2ccc(NC(=O)c3ccc4nnnn4n3)c(C(=O)O)c2)ccc1C(=O)O)c1ccc2nnnn2n1 [US20230357253, Compound 13]"
3,> 1000,"O=C(Nc1cc(CCCc2ccc(C(=O)O)c(NC(=O)c3ccc4nnnn4n3)c2)ccc1C(=O)O)c1ccc2nnnn2n1 [US20230357253, Compound 14]"
4,< 10,"O=C(Nc1cc(OCCCCOc2cc(NC(=O)c3ccc(-n4ccnc4)nn3)c(C(=O)O)cc2F)ccc1C(=O)O)c1ccc(-n2ccnc2)nn1 [US20230357253, Compound 19]"
5,> 1000,"O=C(Nc1cc(OCCCOc2ccc(NC(=O)c3ccc4nnnn4n3)c(C(=O)O)c2)ccc1C(=O)O)c1ccc2nnnn2n1 [US20230357253, Compound 25]"
6,> 1000,"O=C(Nc1cc(OCCOc2cc(C(=O)O)c(NC(=O)c3ccc4nnnn4n3)cc2F)ccc1C(=O)O)c1ccc2nnnn2n1 [US20230357253, Compound 26]"
7,> 1000,"O=C(Nc1cc(OCCCCOc2ccc(NC(=O)c3ccc4nnnn4n3)c(C(=O)O)c2)ccc1C(=O)O)c1ccc2nnnn2n1 [US20230357253, Compound 27]"
8,> 1000,"O=C(Nc1cc(OCCCOc2ccc(C(=O)O)c(NC(=O)c3ccc4nnnn4n3)c2)ccc1C(=O)O)c1ccc2nnnn2n1 [US20230357253, Compound 28]"
9,> 1000,"O=C(Nc1cc(CCc2ccc(C(=O)O)c(NC(=O)c3ccc4nnnn4n3)c2)ccc1C(=O)O)c1ccc2nnnn2n1 [US20230357253, Compound 29]"
10,> 1000,"O=C(Nc1cc(OCCCCCOc2ccc(C(=O)O)c(NC(=O)c3ccc4nnnn4n3)c2)ccc1C(=O)O)c1ccc2nnnn2n1 [US20230357253, Compound 30]"
11,> 1000,"O=C(Nc1cc(OCCOc2ccc(NC(=O)c3ccc4nnnn4n3)c(C(=O)O)c2)ccc1C(=O)O)c1ccc2nnnn2n1 [US20230357253, Compound 31]"
12,> 1000,"O=C(Nc1cc(OCCCCOc2ccc(C(=O)O)c(NC(=O)c3ccc4nnnn4n3)c2)ccc1C(=O)O)c1ccc2nnnn2n1 [US20230357253, Compound 32]"
13,> 1000,"O=C(Nc1cc(OCCCOc2cc(C(=O)O)c(NC(=O)c3ccc4nnnn4n3)cc2F)c(F)cc1C(=O)O)c1ccc2nnnn2n1 [US20230357253, Compound 33]"
14,> 1000,"O=C(Nc1cc(OCCCCOc2ccc(C(=O)O)c(NC(=O)c3ccc(-n4ccnc4)nn3)c2)ccc1C(=O)O)c1ccc(O)nn1 [US20230357253, Compound 35]"
15,> 1000,"COC(=O)c1ccc(OCCCCOc2ccc(C(=O)O)c(NC(=O)c3ccc(-n4ccnc4)nn3)c2)cc1NC(=O)c1ccc2nnnn2n1 [US20230357253, Compound 37]"
16,> 1000,"O=C(Nc1cc(OCCCCOc2cnc(C(=O)O)c(NC(=O)c3ccc(-n4ccnc4)nn3)c2)cnc1C(=O)O)c1ccc(-n2ccnc2)nn1 [US20230357253, Compound 45]"
17,> 1000,"O=C(Nc1cc(CCCc2ccc(C(=O)O)c(NC(=O)c3ccc4nnnn4n3)c2)ccc1C(=O)O)c1ccc(-n2ccnc2)nn1 [US20230357253, Compound 63]"
18,< 10,"O=C(Nc1cc(CCCc2cc(NC(=O)c3ccc4nnnn4n3)c(C(=O)O)cc2F)c(F)cc1C(=O)O)c1ccc(-n2ccnc2)nn1 [US20230357253, Compound 67]"
19,< 10,"O=C(Nc1cc(CCCc2cc(C(=O)O)c(NC(=O)c3ccc4nnnn4n3)cc2F)c(F)cc1C(=O)O)c1ccc(-n2ccnc2)nn1 [US20230357253, Compound 90]"
20,< 10,"O=C(Nc1cc(F)c(CCCc2cc(NC(=O)c3ccc4nnnn4n3)c(C(=O)O)cc2F)cc1C(=O)O)c1ccc(-n2ccnc2)nn1 [US20230357253, Compound 94]"
21,< 10,"O=C(Nc1cc(CCCOc2cc(NC(=O)c3ccc4nnnn4n3)c(C(=O)O)cc2F)c(F)cc1C(=O)O)c1ccc(-n2ccnc2)nn1 [US20230357253, Compound 126]"
22,> 1000,"O=C(Nc1ccc(OCOc2ccc(NC(=O)c3ccc(-n4ccnc4)nn3)c(C(=O)O)c2)cc1C(=O)O)c1ccc(-n2ccnc2)nn1 [US20230357253, Compound 138]"
23,10 to 100,"O=C(Nc1cc(CCOc2cc(C(=O)O)c(NC(=O)c3ccc4nnnn4n3)cc2F)c(F)cc1C(=O)O)c1ccc(-n2ccnc2)nn1 [US20230357253, Compound 145]"

# Second part, the compound before the results:
row,Structure (SMILES),IC50 [nM]
1,"O=C(Nc1cc(CCCc2cc(NC(=O)c3ccc(-n4ccnc4)nn3)c(C(=O)O)cc2F)c(F)cc1C(=O)O)c1ccc(-n2ccnc2)nn1 [US20230357253, Compound 3]",< 10
2,"O=C(Nc1cc(CCOc2cc(NC(=O)c3ccc(-c4cn[nH]c4)nn3)c(C(=O)O)cc2F)c(F)cc1C(=O)O)c1ccc(-c2cn[nH]c2)nn1 [US20230357253, Compound 4]",< 10
3,"CC(CCOc1cc(NC(=O)c2ccc(-n3ccnc3)nn2)c(C(=O)O)cc1F)Oc1cc(NC(=O)c2ccc(-n3ccnc3)nn2)c(C(=O)O)cc1F (centres undefined) [US20230357253, Compound 5]",< 10
4,"O=C(Nc1cc(OCCCOc2cc(C(=O)O)c(NC(=O)c3ccc(-n4ccnc4)nn3)cc2F)c(F)cc1C(=O)O)c1ccc(-n2ccnc2)nn1 [US20230357253, Compound 10]",< 10
5,"COc1cc(C(=O)O)c(NC(=O)c2ccc(-n3ccnc3)nn2)cc1OCCCCOc1cc(NC(=O)c2ccc(-n3ccnc3)nn2)c(C(=O)O)cc1OC [US20230357253, Compound 21]",> 1000
6,"O=C(Nc1c(C(=O)O)cc(F)c(OCCCCOc2c(F)cc(C(=O)O)c(NC(=O)c3ccc(-n4ccnc4)nn3)c2F)c1F)c1ccc(-n2ccnc2)nn1 [US20230357253, Compound 38]",> 1000
7,"O=C(Nc1c(C(=O)O)cc(F)c(OCCCCOc2c(F)cc(C(=O)O)c(NC(=O)c3ccc(-n4ccnc4)nn3)c2F)c1F)c1ccc(O)nn1 [US20230357253, Compound 39]",> 1000
8,"COc1cc(C(=O)O)c(NC(=O)c2ccc(-n3ccnc3)nn2)cc1CCCc1ccc(C(=O)O)c(NC(=O)c2ccc(-n3ccnc3)nn2)c1 [US20230357253, Compound 56]",< 10
9,"COc1cc(C(=O)O)c(NC(=O)c2ccc(-n3ccnc3)nn2)cc1CCCc1cc(NC(=O)c2ccc(-n3ccnc3)nn2)c(C(=O)O)cc1F [US20230357253, Compound 59]",< 10
10,"O=C(Nc1cc(CCCc2cc(NC(=O)c3ccc(-n4ccnc4)nn3)c(C(=O)O)cc2Cl)ccc1C(=O)O)c1ccc(-n2ccnc2)nn1 [US20230357253, Compound 66]",< 10
11,"O=C(Nc1cc(CCCc2cc(NC(=O)c3ccc(-n4ccnc4)nn3)c(C(=O)O)cc2F)ccc1C(=O)O)c1ccc(-n2ccnc2)nn1 [US20230357253, Compound 68]",< 10
12,"O=C(Nc1cc(CCCc2cc(C(=O)O)c(NC(=O)c3ccc(-n4ccnc4)nn3)cc2F)c(F)cc1C(=O)O)c1ccc(-n2ccnc2)nn1 [US20230357253, Compound 70]",< 10
13,"O=C(Nc1cc(CCCc2cc(C(=O)O)c(NC(=O)c3ccc(-n4ccnc4)nn3)cc2F)ccc1C(=O)O)c1ccc(-n2ccnc2)nn1 [US20230357253, Compound 78]",< 10
14,"O=C(Nc1cc(CCCc2cc(C(=O)O)c(NC(=O)c3ccc4nnnn4n3)cc2F)c(N2CCOCC2)cc1C(=O)O)c1ccc(-n2ccnc2)nn1 [US20230357253, Compound 108]",> 1000
15,"O=C(Nc1cc(CCCOc2cc(NC(=O)c3ccc(-n4ccnc4)nn3)c(C(=O)O)cc2F)c(F)cc1C(=O)O)c1ccc(-n2ccnc2)nn1 [US20230357253, Compound 125]",< 10
16,"O=C(Nc1cc(CCCCc2cc(C(=O)O)c(NC(=O)c3ccc(-n4ccnc4)nn3)cc2F)c(F)cc1C(=O)O)c1ccc(-n2ccnc2)nn1 [US20230357253, Compound 127]",< 10
17,"COc1cc(C(=O)O)c(NC(=O)c2ccc(-n3ccnc3)nn2)cc1OCCc1cc(C(=O)O)c(NC(=O)c2ccc(-n3ccnc3)nn2)cc1C#N [US20230357253, Compound 130]",< 10
18,"O=C(Nc1cc(CSCc2cc(NC(=O)c3ccc(-n4ccnc4)nn3)c(C(=O)O)cc2F)c(F)cc1C(=O)O)c1ccc(-n2ccnc2)nn1 [US20230357253, Compound 132]",< 10
19,"O=C(O)Cc1cc(F)c(CCOc2cc(NC(=O)c3ccc(-n4ccnc4)nn3)c(C(=O)O)cc2F)cc1NC(=O)c1ccc(-n2ccnc2)nn1 [US20230357253, Compound 133]",> 1000
20,"COc1nc(C(=O)O)c(NC(=O)c2ccc(-n3ccnc3)nn2)cc1CCCc1cc(NC(=O)c2ccc(-n3ccnc3)nn2)c(C(=O)O)cc1F [US20230357253, Compound 134]",< 10
21,"O=C(Nc1cc(CCOc2cc(C(=O)O)c(NC(=O)c3ccc(-n4ccnc4)nn3)cc2F)c(F)cc1C(=O)O)c1ccc(-n2ccnc2)nn1 [US20230357253, Compound 141]",< 10
22,"O=C(Nc1cc(OCCc2cc(C(=O)O)c(NC(=O)c3ccc(-n4ccnc4)nn3)cc2F)c(F)cc1C(=O)O)c1ccc(-n2ccnc2)nn1 [US20230357253, Compound 144]",< 10
23,"O=C(Nc1cc(CCCc2ccc(-c3nn[nH]n3)c(NC(=O)c3ccc(-n4ccnc4)nn3)c2)c(F)cc1C(=O)O)c1ccc(-n2ccnc2)nn1 [US20230357253, Compound 148]",> 1000
24,"COc1cc(C(=O)O)c(NC(=O)c2ccc(-n3ccnc3)nn2)cc1OCCc1cc(C(=O)O)c(NC(=O)c2ccc(-n3ccnc3)nn2)cc1Cl [US20230357253, Compound 156]",< 10
25,"O=C(Nc1cc(CCCc2cc(NC(=O)c3ccc(-n4ccnc4)nn3)c(C(=O)O)cc2F)c(F)cc1C(=O)O)c1ccc(-c2cn[nH]c2)nn1 [US20230357253, Compound 159]",< 10
26,"N#Cc1cc(C(=O)O)c(NC(=O)c2ccc(-n3ccnc3)nn2)cc1CCOc1cc(NC(=O)c2ccc(-n3ccnc3)nn2)c(C(=O)O)cc1F [US20230357253, Compound 162]",< 10
